Source: patent US10093642B2, “Multitarget hedgehog pathway inhibitors and uses thereof” (UNIVERSITA' DEGLI STUDI DI SIENA, priority 2013, dated 2018)

Experiments:
[1] = system: ASZ001 basal cell carcinoma cells; experiment: ASZ001 BCC cell growth, cell death and Gli1 mRNA; assay type: cell-based; conditions: in vitro treatment
Experimental: FIG. 15. Inhibition of Gli-dependent BCC tumor cell growth. ASZ001 BCC cells were treated with Glabrescione B (GlaB) 5 μM or DMSO only (A) or with Glabrescione B 1, 5 and 10 μM (GlaB) or DMSO only (B). After the indicated times, a trypan blue count was performed to determine the growth rate (A) or the percentage of cell death (B). (C) Gli1 mRNA expression levels were determined by qRT-PCR after treatment of ASZ001 BCC cells with Glabrescione B (GlaB) or DMSO only for the indicated times. Results are expressed in arbitrary units as relative quantification normalized with endogenous control β2-microglobulin and HPRT. […] Error bars indicate SD. *P<0.05 vs DMSO.
Total RNA was isolated with Trizol (Invitrogen, Eugene, Or, USA) and reverse transcribed with Superscript II reverse transcriptase and random hexamers (Invitrogen, Eugene, Or, USA). Quantitative real-time PCR (qRT-PCR) analysis of Gli1, Gli2, Ptch1, Ptch2, Nanog, Oct-4, Cyclin D1, Cyclin D2, Nmyc, HIP1, Sfrp1, Bmp2, IGF2, β-2 microglobulin, HPRT, mRNA expression was performed on each cDNA sample using the ABI Prism 7900HT Sequence Detection System employing Assay-on-Demand Reagents (Applied Biosystems, Foster City, Calif., USA). […]

[2] = system: Cancer stem cells (CSCs) isolated from murine Ptch+/− MB; experiment: Neurosphere forming assay (self-renewal of MB CSCs); assay type: cell-based; conditions: seven days of treatment; KAAD 1 μM as comparator
Experimental: FIG. 14. […] After seven days of treatment the number of secondary neurospheres derived from a known number of single cells was counted. The self-renewal CSCs capability is expressed as percentage of neurospheres forming cells.
Hh activity preferentially associates to stemness features. For this reason, the Hh pathway antagonist Glabrescione B has also been investigated for its ability to modulate the behavior of MB cancer stem cells (CSCs).
Another experiment was carried out to determine the ability of Glabrescione B to suppress MB CSCs self-renewal. To this aim neurospheres derived from murine Ptch^+/− MB were treated with Glabrescione B at different concentrations and the percentage of neurospheres-forming cells was measured. For the neurosphere forming assay, cells were plated at clonal density (1-2 cells/mm2) into 96-well plates and cultured in selective medium as described above.
The results shown in FIG. 14 indicate that Glabrescione B has an inhibitory effect on self-renewal of cancer stem cells.

Gli1-GST fusion protein = experiment: NMR relaxation speed of Glabrescione B protons in presence of Gli1-GST; assay type: binding; conditions: 0.412 mM
Experimental: A sample of Glabrescione B 0.412 mM in DMSO-d6 was prepared and added to 20 μL of a solution of Gli1-GST (Glutathione S-transferase) fusion protein at 5 μg/μL, providing a molar ratio of Glabrescione B/Gli1-GST of 150:1. […] In experimental conditions, Glabrescione B protons experiencing the most significant perturbation of the relaxation speed, due to the presence of Gli1-GST, belong to the ring A of the isoflavone nucleus, namely aromatic protons H1, H3 and those belonging to methoxyl groups 2′ and 4′.

With `COc1cc(OC)c2c(=O)c(-c3ccc(OCC=C(C)C)c(OCC=C(C)C)c3)coc2c1` [Glabrescione B, 3-(3′,4′-bis(3-methylbut-2-enyloxy)phenyl)-5,7-dimethoxy-4H-chromen-4-one] the BCC cell proliferation [1] was “impaired”, the “Gli1 mRNA in BCC cells” value ([1]; qRT-PCR) was “suppression of Gli1 mRNA” and the “MB CSCs self-renewal (percentage of neurospheres-forming cells)” value [2] was “suppressive effect on MB CSCs self-renewal”. For the same compound, the “Normalized relaxation speed ΔR/Rf, GlaB:Gli1-GST 1:150” value (from here on “Normalized relaxation speed ΔR/Rf”) (Gli1-GST fusion protein; proton 1) was 0.341, the “Normalized relaxation speed ΔR/Rf” value (Gli1-GST fusion protein; proton 2′) was 0.267 and the “Normalized relaxation speed ΔR/Rf” value (Gli1-GST fusion protein; proton 3) was 0.206. The “Normalized relaxation speed ΔR/Rf” value (Gli1-GST fusion protein; proton 4′) was 0.482, the “Normalized relaxation speed ΔR/Rf” value (Gli1-GST fusion protein; proton 8) was 0.028 and the “Normalized relaxation speed ΔR/Rf” value (Gli1-GST fusion protein; proton 11) was 0.286. The “Normalized relaxation speed ΔR/Rf” value (Gli1-GST fusion protein; proton 12) was 0, the “Normalized relaxation speed ΔR/Rf” value (Gli1-GST fusion protein; proton 15) was 0.329 and the “Normalized relaxation speed ΔR/Rf” value (Gli1-GST fusion protein; proton 19) was 0.
